# From PubChem BioAssay AID2060361 (Molecular Pharmacology Branch, DTP, NCI, 2025)
# Test system: 463943-066-T-J2-PDC tumor spheroids with HUVEC/MSC, viability
# Assay: Anticancer human tumor 463943-066-T-J2-PDC patient-derived colon adenocarcinoma cell line growth inhibition [TAK]
# Conditions: for IC50: curve of first compound; for viability, T/C: stronger effect = lower value
# In short: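 Spheroids of 60% malignant cells, 25% HUVEC and 15% hMSC were exposed to targeted agents combined with TAK-243 or ipatasertib. Concentrations started at or near clinical Cmax (10 microM if unknown) and descended in half-log steps.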
# [1] = second compound 0.3 µM, first compound 0.0316 µM
# [2] = second compound 0.3 µM, first compound 0.1 µM
# [3] = second compound 0.3 µM, first compound 0.316 µM
# [4] = second compound 0.3 µM, first compound 1 µM
# [5] = second compound 0.949 µM, first compound 0.0316 µM
# [6] = second compound 0.949 µM, first compound 0.1 µM
# [7] = second compound 0.949 µM, first compound 0.316 µM
# [8] = second compound 0.949 µM, first compound 1 µM
# [9] = second compound 3 µM, first compound 0.0316 µM
# [10] = second compound 3 µM, first compound 0.1 µM
# [11] = second compound 3 µM, first compound 0.316 µM
# [12] = second compound 3 µM, first compound 1 µM
# [13] = second compound 9.49 µM, first compound 0.0316 µM
# [14] = second compound 9.49 µM, first compound 0.1 µM
# [15] = second compound 9.49 µM, first compound 0.316 µM
# [16] = second compound 9.49 µM, first compound 1 µM
# [17] = second compound 30 µM, first compound 0.0316 µM
# [18] = second compound 30 µM, first compound 0.1 µM
# [19] = second compound 30 µM, first compound 0.316 µM
# [20] = second compound 30 µM, first compound 1 µM
# 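Note: spheroids exposed to drugs for seven days.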
# 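Throughout, for viability, T/C: 100% = DMSO vehicle control wells.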
Structure (SMILES),IC50 (second compound 0.3 µM) [µM],IC50 (second compound 0.949 µM) [µM],IC50 (second compound 3 µM) [µM],IC50 (second compound 9.49 µM) [µM],IC50 (second compound 30 µM) [µM],"viability, T/C [1] [%]","viability, T/C [2] [%]","viability, T/C [3] [%]","viability, T/C [4] [%]","viability, T/C [5] [%]","viability, T/C [6] [%]","viability, T/C [7] [%]","viability, T/C [8] [%]","viability, T/C [9] [%]","viability, T/C [10] [%]","viability, T/C [11] [%]","viability, T/C [12] [%]","viability, T/C [13] [%]","viability, T/C [14] [%]","viability, T/C [15] [%]",also measured
COc1c(OCCCN2CCOCC2)ccc2c3n(c(=NC(=O)c4cnc(N)nc4)nc12)CCN3 + CC(C)NCC(C(=O)N1CCN(c2ncnc3c2C(C)CC3O)CC1)c1ccc(Cl)cc1,> 1,> 1,> 1,> 1,> 1,85,77.1,70.3,66.5,75.1,78.2,77.2,68.1,83.5,79.8,79.8,77,86.4,73.6,75.6,"viability, T/C (second compound 0.3 µM, first compound 0.00316 µM): 91.4%; viability, T/C (second compound 0.3 µM, first compound 0.01 µM): 91.3%; viability, T/C (second compound 0.949 µM, first compound 0.00316 µM): 88.6%; viability, T/C (second compound 0.949 µM, first compound 0.01 µM): 93.1%; viability, T/C (second compound 3 µM, first compound 0.00316 µM): 93.7%; viability, T/C (second compound 3 µM, first compound 0.01 µM): 86.8%; viability, T/C (second compound 9.49 µM, first compound 0.00316 µM): 81.3%; viability, T/C (second compound 9.49 µM, first compound 0.01 µM): 85.5%; viability, T/C [16]: 71.2%; viability, T/C (second compound 30 µM, first compound 0.00316 µM): 85.6%; viability, T/C (second compound 30 µM, first compound 0.01 µM): 87.5%; viability, T/C [17]: 74.6%; viability, T/C [18]: 73.9%; viability, T/C [19]: 66.5%; viability, T/C [20]: 71.2%"
Cc1nc(NC(=O)N2CCCC2C(N)=O)sc1-c1ccnc(C(C)(C)C(F)(F)F)c1 (stereo not given) + CC(C)NCC(C(=O)N1CCN(c2ncnc3c2C(C)CC3O)CC1)c1ccc(Cl)cc1,> 10,> 10,> 10,> 10,> 10,106,99.8,105,87.8,104,89.9,91.8,89.2,98,100,88.4,88.8,89.6,95.3,90.7,"viability, T/C (second compound 0.3 µM, first compound 3.16 µM): 81%; viability, T/C (second compound 0.3 µM, first compound 10 µM): 79.3%; viability, T/C (second compound 0.949 µM, first compound 3.16 µM): 78.4%; viability, T/C (second compound 0.949 µM, first compound 10 µM): 78.1%; viability, T/C (second compound 3 µM, first compound 3.16 µM): 81.1%; viability, T/C (second compound 3 µM, first compound 10 µM): 75%; viability, T/C [16]: 86.9%; viability, T/C (second compound 9.49 µM, first compound 3.16 µM): 79.5%; viability, T/C (second compound 9.49 µM, first compound 10 µM): 80.7%; viability, T/C [17]: 92.7%; viability, T/C [18]: 94.4%; viability, T/C [19]: 88.2%; viability, T/C [20]: 92.8%; viability, T/C (second compound 30 µM, first compound 3.16 µM): 90.5%; viability, T/C (second compound 30 µM, first compound 10 µM): 76.6%"
